Experimental data reported in PubChem BioAssay AID330 (DTP/NCI, 2004).
“And” between values parts separate entries of the source, which are not always exact repeats. Identical values can stand only once. Toxic doses and inconclusive results are not listed. Bridge positions count the residues as written; N and C are the ends. Peptide text beside a SMILES is read from it. I, II: the chains in the order shown. * marks the point of attachment. Bz = O=C(c1ccccc1)*; Bn = c1ccc(C*)cc1; βAla = NCCC(=O)O

Tested on: P388 leukemia ip, CD2F1 mice, survival T/C
Experiment: NCI In Vivo Anticancer Drug Screen. Data for tumor model P388 Leukemia (intraperitoneal) in CD2F1 (CDF1) mice
Conditions: endpoint: median survival time, higher = longer survival
Method in brief: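 Mice carrying the transplanted tumor received test compound or vehicle. Survival was recorded in each group, and the value is the treated-group measurement divided by that of the vehicle-treated control group.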

[1] = dose: 60.0 mg/kg/injection, schedule: Q01DX005 (ip), vehicle: saline with Tween-80
[2] = dose: 120.0 mg/kg/injection, schedule: Q01DX005 (ip), vehicle: saline with Tween-80
[3] = dose: 240.0 mg/kg/injection, schedule: Q01DX005 (ip), vehicle: saline with Tween-80
[4] = dose: 12.5 mg/kg/injection, schedule: Q01DX009 (ip), vehicle: Klucel (hydroxypropylcellulose) (HPC)
[5] = dose: 50.0 mg/kg/injection, schedule: Q01DX009 (ip), vehicle: Klucel (hydroxypropylcellulose) (HPC)
[6] = dose: 100.0 mg/kg/injection, schedule: Q01DX009 (ip), vehicle: Klucel (hydroxypropylcellulose) (HPC)
[7] = dose: 200.0 mg/kg/injection, schedule: Q01DX009 (ip), vehicle: Klucel (hydroxypropylcellulose) (HPC)
[8] = dose: 50.0 mg/kg/injection, schedule: Q01DX005 (ip), vehicle: saline with Tween-80
[9] = dose: 100.0 mg/kg/injection, schedule: Q01DX009 (ip), vehicle: saline with Tween-80
[10] = dose: 200.0 mg/kg/injection, schedule: Q01DX009 (ip), vehicle: saline with Tween-80
[11] = dose: 50.0 mg/kg/injection, schedule: Q01DX001 (ip), vehicle: Klucel (hydroxypropylcellulose) (HPC)
[12] = dose: 100.0 mg/kg/injection, schedule: Q01DX001 (ip), vehicle: Klucel (hydroxypropylcellulose) (HPC)
[13] = dose: 50.0 mg/kg/injection, schedule: Q01DX005 (ip), vehicle: Klucel (hydroxypropylcellulose) (HPC)
[14] = dose: 100.0 mg/kg/injection, schedule: Q01DX005 (ip), vehicle: Klucel (hydroxypropylcellulose) (HPC)
[15] = dose: 200.0 mg/kg/injection, schedule: Q01DX005 (ip), vehicle: Klucel (hydroxypropylcellulose) (HPC)
[16] = dose: 12.5 mg/kg/injection, schedule: Q01DX009 (ip), vehicle: water
[17] = dose: 100.0 mg/kg/injection, schedule: Q01DX005 (ip), vehicle: saline with Tween-80
[18] = dose: 200.0 mg/kg/injection, schedule: Q01DX005 (ip), vehicle: saline with Tween-80
[19] = dose: 25.0 mg/kg/injection, schedule: Q01DX009 (ip), vehicle: saline with Tween-80
[20] = dose: 50.0 mg/kg/injection, schedule: Q01DX009 (ip), vehicle: saline with Tween-80

SMILES: O=c1[nH]c2cc(Cl)ccc2nc1/C=C(\O)c1cccc2ccccc12
- T/C [1]: 89 % of control
- T/C [2]: 88 % of control
- T/C [3]: 90 % of control

SMILES: COC1/C=C\OC2(C)Oc3c(C)c(O)c4c(O)c(c(CN(C)CCO)c(O)c4c3C2=O)NC(=O)/C(C)=C\C=C/C(C)C(O)C(C)C(O)C(C)C(OC(C)=O)C1C (stereo not drawn)
- T/C [4]: 86 % of control
- T/C (dose: 25.0 mg/kg/injection, schedule: Q01DX009 (ip), vehicle: Klucel (hydroxypropylcellulose) (HPC)): 117 % of control
- T/C [5]: 118 % of control
- T/C [6]: 111 % of control
- T/C [7]: 104 % of control
- T/C (dose: 400.0 mg/kg/injection, schedule: Q01DX009 (ip), vehicle: Klucel (hydroxypropylcellulose) (HPC)): 96 % of control

SMILES: Cc1c(COC(=O)NC(C)C)c(COC(=O)NC(C)C)c(-c2ccccc2)n1-c1ccccc1
- T/C [8]: 188 % of control and 192 % of control

SMILES: NS(=O)(=O)c1ccc(NC(=O)Nc2c(Cl)cccc2Cl)cc1
- T/C [5]: 96 % of control
- T/C [6]: 87 % of control
- T/C [7]: 95 % of control

SMILES: O=C(O)c1ccc2cc3ccccc3cc2c1
- T/C [9]: 99 % of control
- T/C [10]: 91 % of control

SMILES: CNC(=O)c1n[nH]c(C)c1N
- T/C (dose: 12.5 mg/kg/injection, schedule: Q04DX003 (ip), vehicle: water): 94 % of control
- T/C (dose: 25.0 mg/kg/injection, schedule: Q04DX003 (ip), vehicle: water): 100 % of control
- T/C (dose: 50.0 mg/kg/injection, schedule: Q04DX003 (ip), vehicle: water): 103 % of control
- T/C (dose: 100.0 mg/kg/injection, schedule: Q04DX003 (ip), vehicle: water): 103 % of control
- T/C (dose: 200.0 mg/kg/injection, schedule: Q04DX003 (ip), vehicle: water): 99 % of control

SMILES: C=C1C(=O)OC2/C=C(/C)C3CC(O)C(C)(CC(OC(=O)/C(C)=C/C)C12)O3 (stereo not drawn)
- T/C (dose: 10.0 mg/kg/injection, schedule: Q01DX009 (ip), vehicle: saline with Tween-80): 96 % of control and 105 % of control
- T/C (dose: 20.0 mg/kg/injection, schedule: Q01DX009 (ip), vehicle: saline with Tween-80): 96 % of control and 107 % of control
- T/C (dose: 40.0 mg/kg/injection, schedule: Q01DX009 (ip), vehicle: saline with Tween-80): 109 % of control and 119 % of control
- T/C (dose: 80.0 mg/kg/injection, schedule: Q01DX009 (ip), vehicle: saline with Tween-80): 123 % of control and 117 % of control

SMILES: CC(C)NC(=O)OCc1c(COC(=O)NC(C)C)c2cccn2c2c1cnn2-c1ccccc1
- T/C (dose: 30.0 mg/kg/injection, schedule: Q01DX005 (ip), vehicle: saline with Tween-80): 87 % of control
- T/C [1]: 89 % of control
- T/C [2]: 89 % of control and 91 % of control
- T/C [3]: 96 % of control

SMILES: CCOC(=O)C(Cc1ccc(Oc2nc3ccccc3o2)cc1)NC(C)=O (stereo not drawn)
- T/C (dose: 25.0 mg/kg/injection, schedule: Q01DX001 (ip), vehicle: Klucel (hydroxypropylcellulose) (HPC)): 110 % of control
- T/C [11]: 112 % of control
- T/C [12]: 109 % of control

SMILES: COc1ccc(/C=N\N=C(/[O-])c2ccc(Cl)cc2)cc1.COc1ccc(/C=N\N=C(/[O-])c2ccc(Cl)cc2)cc1.[Ni+2].[OH3+].[OH3+]
- T/C (dose: 100.0 mg/kg/injection, schedule: Q04DX002 (ip), vehicle: saline with Tween-80): 92 % of control

SMILES: CC(NC(=O)C(N)CSSCC(N)C(=O)NC(C)C(=O)O)C(=O)O (stereo not drawn) (I: H-Cys-Ala-OH / II: H-Cys-Ala-OH; disulfide I:1-II:1; configuration not given here)
- T/C [13]: 100 % of control
- T/C [14]: 104 % of control
- T/C [15]: 110 % of control

SMILES: COc1cccc2c1C(=O)c1c(O)c3c(c(O)c1C2=O)CC(O)(/C(C)=N/NC(=O)CCCCC(=O)N/N=C(\C)C1(O)Cc2c(O)c4c(c(O)c2C(OC2CC(N)C(O)C(C)O2)C1)C(=O)c1c(OC)cccc1C4=O)CC3OC1CC(N)C(O)C(C)O1 (stereo not drawn)
- T/C (dose: 0.2 mg/kg/injection, schedule: Q01DX009 (ip), vehicle: water): 118 % of control
- T/C (dose: 0.78 mg/kg/injection, schedule: Q01DX009 (ip), vehicle: water): 154 % of control
- T/C (dose: 1.56 mg/kg/injection, schedule: Q01DX009 (ip), vehicle: water): 157 % of control and 172 % of control
- T/C (dose: 3.13 mg/kg/injection, schedule: Q01DX009 (ip), vehicle: water): 186 % of control and 189 % of control
- T/C (dose: 6.25 mg/kg/injection, schedule: Q01DX009 (ip), vehicle: water): 281 % of control and 289 % of control
- T/C [16]: 100 % of control and 102 % of control

SMILES: O=C(O)c1ccccc1C(=O)O
- T/C [16]: 102 % of control
- T/C (dose: 25.0 mg/kg/injection, schedule: Q01DX009 (ip), vehicle: water): 102 % of control
- T/C (dose: 50.0 mg/kg/injection, schedule: Q01DX009 (ip), vehicle: water): 98 % of control
- T/C (dose: 100.0 mg/kg/injection, schedule: Q01DX009 (ip), vehicle: water): 92 % of control
- T/C (dose: 200.0 mg/kg/injection, schedule: Q01DX009 (ip), vehicle: water): 88 % of control

SMILES: O=C(CCc1n[nH]c(=S)o1)Nc1ccccc1
- T/C [8]: 102 % of control
- T/C [17]: 95 % of control
- T/C [18]: 96 % of control

SMILES: Cc1cc(Nc2ccc(N(CCCl)CCCl)cc2)c(C)cc1O
- T/C (dose: 200.0 mg/kg/injection, schedule: Q04DX003 (ip), vehicle: Klucel (hydroxypropylcellulose) (HPC)): 159 % of control

SMILES: CN(C)c1ccc(CN2CCCN(Cc3ccc(N(C)C)cc3)C2c2cc(Cl)ccc2O)cc1
- T/C [9]: 95 % of control
- T/C [10]: 90 % of control
- T/C (dose: 400.0 mg/kg/injection, schedule: Q01DX009 (ip), vehicle: saline with Tween-80): 90 % of control

SMILES: C(=C\c1ccncc1)/c1ccncc1
- T/C (dose: 12.5 mg/kg/injection, schedule: Q01DX009 (ip), vehicle: saline with Tween-80): 90 % of control
- T/C [19]: 90 % of control
- T/C [20]: 101 % of control
- T/C [6]: 89 % of control
- T/C [9]: 107 % of control
- T/C [7]: 92 % of control

SMILES: NN1C(=O)C2C3C=CC(C4CC34)C2C1=O (stereo not drawn)
- T/C (dose: 6.25 mg/kg/injection, schedule: Q01DX009 (ip), vehicle: Klucel (hydroxypropylcellulose) (HPC)): 100 % of control
- T/C [4]: 110 % of control

SMILES: C=C(C)C(C(=O)OC(c1ccccc1)c1ccccc1)N1C(=O)C(NC(=O)COc2ccccc2)C1SSc1nc2ccccc2s1 (stereo not drawn)
- T/C [8]: 94 % of control
- T/C [17]: 89 % of control
- T/C [18]: 93 % of control

SMILES: O=C(CCl)NC(O)C(Cl)(Cl)Cl (stereo not drawn)
- T/C [8]: 101 % of control
- T/C [17]: 99 % of control
- T/C [18]: 103 % of control

SMILES: Nc1ccc(-c2cc(O)ccc2N)cc1
- T/C [19]: 100 % of control
- T/C [20]: 117 % of control
- T/C [9]: 110 % of control

SMILES: COc1ccc(OC)c(/C=N/N=C2\C(=O)Nc3c(Cl)cc(Cl)cc32)c1
- T/C [8]: 97 % of control
- T/C [17]: 98 % of control
- T/C [18]: 92 % of control

SMILES: CNc1nc2c(N)ncnc2n1C1CC(O)C(CO)O1 (stereo not drawn)
- T/C [13]: 101 % of control
- T/C [14]: 96 % of control
- T/C [15]: 104 % of control

SMILES: Nc1cc(C(F)(F)F)cc(N)c1N
- T/C [8]: 104 % of control
- T/C [17]: 94 % of control
- T/C [18]: 99 % of control

SMILES: O=N[O-].O=N[O-].[NH2-].[NH2-].[NH2-].[NH2-].[Ni]
- T/C (dose: 6.25 mg/kg/injection, schedule: Q01DX009 (ip), vehicle: saline): 100 % of control
- T/C (dose: 12.5 mg/kg/injection, schedule: Q01DX009 (ip), vehicle: saline): 105 % of control

SMILES: CN(C)/N=C(\N)c1nnn(C)n1
- T/C [11]: 106 % of control
- T/C [12]: 101 % of control
- T/C (dose: 200.0 mg/kg/injection, schedule: Q01DX001 (ip), vehicle: Klucel (hydroxypropylcellulose) (HPC)): 100 % of control

SMILES: COC(=O)C(CSCc1ccccc1)NC(=O)C(CSCc1ccccc1)NC(=O)CCNC(=O)c1ccccc1 (stereo not drawn) ({Bz-βAla}-Cys(Bn)-Cys(Bn)-OMe; configuration not given here)
- T/C (dose: 12.5 mg/kg/injection, schedule: Q01DX009 (ip), vehicle: distilled water + Tween-80): 92 % of control
- T/C (dose: 25.0 mg/kg/injection, schedule: Q01DX009 (ip), vehicle: distilled water + Tween-80): 89 % of control
- T/C (dose: 50.0 mg/kg/injection, schedule: Q01DX009 (ip), vehicle: distilled water + Tween-80): 90 % of control
- T/C (dose: 100.0 mg/kg/injection, schedule: Q01DX009 (ip), vehicle: distilled water + Tween-80): 94 % of control

SMILES: COc1ccc(CCn2cnn3c(=O)c4ccccc4nc3c2=O)cc1OC
- T/C [1]: 99 % of control
- T/C [2]: 92 % of control

SMILES: O=S(=O)(c1ccccc1)N1CCCCN(S(=O)(=O)c2ccccc2)COC1
- T/C [13]: 104 % of control
- T/C [14]: 102 % of control
- T/C [15]: 102 % of control
